From patent US20240245631A1, “METHODS OF TREATING LENNOX-GASTAUT SYNDROME USING FENFLURAMINE” (ZOGENIX INTERNATIONAL LIMITED, priority 2015, published 2024)

Columns and labels:
Lennox-Gastaut patients = assay: Open-label Phase 2 add-on study of low-dose fenfluramine in Lennox-Gastaut patients; assay type: in vivo, human
Protocol: The efficacy of fenfluramine as an add-on treatments in Lennox-Gastaut patients is studied in a Phase 2 Clinical Trial. The study protocol is described and preliminary results are presented here.
An open-label, non-placebo controlled add-on study was designed to assess the efficacy and safety of low-dose add-on fenfluramine across a range of fenfluramine doses (0.2, 0.4, 0.8 mg/kg/day, to a maximum of 30 mg/day). The trial was conducted over a 20 week period, with responders eligible for follow-on treatment, with follow-up appointments at three month intervals.
Patients were recruited from childhood epilepsy clinics in Leuven and Antwerp, Belgium, and selected for inclusion in the study according to criteria comprising a combination of age, physical and psychological characteristics, and resistance to treatment with conventional therapies. Details of selection criteria are provided below.
Study duration is 20 weeks, ending at week 20 after inclusion of 20 patients, i.e., 20 weeks following the enrollment of the 20th patient. Patients who respond to treatment are enrolled in a follow-on study and assessed on an ongoing basis.
Patients are examined during six clinical visits (V1 through V6) scheduled at four week intervals, ending with V6 at week 20. […] At each visit, endpoints and safety criteria are assessed, and dosages adjusted as necessary.
Add-on treatment is begun at V2. […] Endpoints and safety criteria are assessed (seizure counting, adverse effects, pregnancy testing, and quality of life indicators (CGI, sleep scale)). […]
At each of V3-V5, endpoints and safety criteria are again assessed. […]
At V6, endpoints and safety criteria are again assessed. […]
Fenfluramine: Oral fenfluramine solution (2.5 mg/ml or 5 mg/ml) is provided by Zogenix Pharma. […] Patient compliance is assessed by control of oral solution quantity at each visit and collection of seizure diary with notification of drug intake. […]
Safety assessment: Treatment safety is assessed using a combination of physical examination, blood testing, cardiac evaluation, and adverse event reporting. […]

[1] = system: children with refractory epilepsy; details: 0.5 to 1 mg/kg/day; cited from earlier work
[2] = system: child suffering pattern sensitivity-induced seizures; details: single case, resistant to anticonvulsive treatment; cited from earlier work
[3] = system: self-induced photosensitive seizures; details: four cases; cited from earlier work

SMILES: CCNC(C)Cc1cccc(C(F)(F)F)c1 (stereo not drawn) [fenfluramine, 3-trifluoromethyl-N-ethylamphetamine]
- total seizure frequency (Lennox-Gastaut patients; 3 patients receiving 0.2 mg/kg/day, add-on, interim results): significant decreases in total seizure frequency
- serious side effects (Lennox-Gastaut patients; 9 patients receiving add-on fenfluramine, interim results): None of the 9 patients receiving fenfluramine reported serious side effects
- seizure frequency (overall interim conclusion) (Lennox-Gastaut patients; low-dose add-on treatment, early interim data): effective in reducing seizure frequency
- number of seizures experienced by the patients [1]: reduction in the number of seizures
- self-induced seizures [2]: successfully terminated these self-induced seizures
- response of self-induced photosensitive seizures [3]: responded to treatment with fenfluramine
